What is called IC50 is the concentration that inhibits the measured activity by half.

The target of the assay is TRKA (Homo sapiens (Human), UniProt P04629). The assay is described as follows: Isolated TRK enzyme assay (HTRF KinEASE-TK), TRKA. Format: biochemical. The conditions noted are these: read-out: Trka enzyme (IC50). A general note: In TR-FRET formats the signal depends on donor and acceptor labels being close together.
Chain of TRKA (P04629 441-796): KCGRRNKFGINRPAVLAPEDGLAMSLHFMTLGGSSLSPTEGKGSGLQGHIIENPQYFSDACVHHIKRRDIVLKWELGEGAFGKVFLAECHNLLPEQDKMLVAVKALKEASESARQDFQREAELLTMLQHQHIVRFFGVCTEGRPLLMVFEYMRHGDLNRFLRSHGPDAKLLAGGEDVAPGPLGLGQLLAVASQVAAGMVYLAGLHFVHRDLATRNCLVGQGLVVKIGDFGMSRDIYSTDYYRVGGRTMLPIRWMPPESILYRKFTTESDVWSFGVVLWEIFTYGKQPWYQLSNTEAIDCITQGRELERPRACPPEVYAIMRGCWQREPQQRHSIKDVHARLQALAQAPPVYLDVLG

With `CC(C)n1cc(C(=O)c2cncc(NC(=O)c3cnccc3C(F)(F)F)c2)c2cncnc21` [Example 451, N-[5-(7-Isopropyl-7H-pyrrolo[2,3-d]pyrimidine-5-carbonyl)-pyridin-3-yl]-4-trifluoromethyl-nicotinamide], the IC50 amounted to 7170 nM.
As for `CC(C)n1cc(C(=O)c2cncc(NC(=O)c3cnn(CCC#N)c3)c2)c2cncnc21` [Example 452, 1-(2-Cyano-ethyl)-1H-pyrazole-4-carboxylic acid [5-(7-isopropyl-7H-pyrrolo[2,3-d]pyrimidine-5-carbonyl)-pyridin-3-yl]amide], the figure is 542 nM; as for `CC(C)n1cc(C(=O)c2cncc(NC(=O)c3cc4cnccc4o3)c2)c2cncnc21` [Example 453, Furo[3,2-c]pyridine-2-carboxylic acid [5-(7-isopropyl-7H-pyrrolo[2,3-d]pyrimidine-5-carbonyl)-pyridin-3-yl]-amide], 634 nM; as for `CC(C)n1cc(C(=O)c2cncc(NC(=O)c3cc4cnccc4[nH]3)c2)c2cncnc21` [Example 454, 1H-Pyrrolo[3,2-c]pyridine-2-carboxylic acid [5-(7-isopropyl-7H-pyrrolo[2,3-d]pyrimidine-5-carbonyl)-pyridin-3-yl]-amide], 633 nM.
As for `CC(C)n1cc(C(=O)c2cncc(NC(=O)c3cc4occc4cn3)c2)c2cncnc21` [Example 455, Furo[3,2-c]pyridine-6-carboxylic acid [5-(7-isopropyl-7H-pyrrolo[2,3-d]pyrimidine-5-carbonyl)-pyridin-3-yl]-amide], the figure is 1070 nM.
For `Cc1nc(C)c(C(=O)Nc2cncc(C(=O)c3cn(C(C)C)c4ncncc34)c2)o1` [Example 456, 2,4-Dimethyl-oxazole-5-carboxylic acid [5-(7-isopropyl-7H-pyrrolo[2,3-d]pyrimidine-5-carbonyl)-pyridin-3-yl]-amide] the value was 6960 nM.
On to `CC(C)n1cc(C(=O)c2cncc(NC(=O)c3cn(C)c4cnccc34)c2)c2cncnc21` [Example 457, 1-Methyl-1H-pyrrolo[2,3-c]pyridine-3-carboxylic acid [5-(7-isopropyl-7H-pyrrolo[2,3-d]pyrimidine-5-carbonyl)-pyridin-3-yl]-amide], for which the IC50 came to 674 nM.
For `CC(C)n1cc(C(=O)c2cncc(NC(=O)c3cc4n(n3)CCC4)c2)c2cncnc21` [Example 458, 5,6-Dihydro-4H-pyrrolo[1,2-b]pyrazole-2-carboxylic acid [5-(7-isopropyl-7H-pyrrolo[2,3-d]pyrimidine-5-carbonyl)-pyridin-3-yl]-amide] the value was 213 nM.
Take `CC(C)n1cc(C(=O)c2cncc(NC(=O)c3csc(C4CCC4)n3)c2)c2cncnc21` [Example 459, 2-Cyclobutyl-thiazole-4-carboxylic acid [5-(7-isopropyl-7H-pyrrolo[2,3-d]pyrimidine-5-carbonyl)-pyridin-3-yl]-amide]: the IC50 was 4.06 nM.
For `CC(C)n1cc(C(=O)c2cncc(NC(=O)c3ccncc3F)c2)c2cncnc21` [Example 460, 3-Fluoro-N-[5-(7-isopropyl-7H-pyrrolo[2,3-d]pyrimidine-5-carbonyl)-pyridin-3-yl]-isonicotinamide] the value was 9800 nM; for `Cc1nc2ncccn2c1C(=O)Nc1cncc(C(=O)c2cn(C(C)C)c3ncncc23)c1` [Example 461, 2-Methyl-imidazo[1,2-a]pyrimidine-3-carboxylic acid [5-(7-isopropyl-7H-pyrrolo[2,3-d]pyrimidine-5-carbonyl)-pyridin-3-yl]-amide], 9800 nM; for `Cc1cc(C(=O)Nc2cncc(C(=O)c3cn(C(C)C)c4ncncc34)c2)no1` [Example 462, 5-Methyl-isoxazole-3-carboxylic acid [5-(7-isopropyl-7H-pyrrolo[2,3-d]pyrimidine-5-carbonyl)-pyridin-3-yl]-amide], 1320 nM.
For `COc1cc(OC)nc(C(=O)Nc2cncc(C(=O)c3cn(C(C)C)c4ncncc34)c2)n1` [Example 463, 4,6-Dimethoxy-pyrimidine-2-carboxylic acid [5-(7-isopropyl-7H-pyrrolo[2,3-d]pyrimidine-5-carbonyl)-pyridin-3-yl]-amide] the value was 186 nM.
With `Cc1cncc(C(=O)Nc2cncc(C(=O)c3cn(C(C)C)c4ncncc34)c2)n1` [Example 464, 6-Methyl-pyrazine-2-carboxylic acid[5-(7-isopropyl-7H-pyrrolo[2,3-d]pyrimidine-5-carbonyl)-pyridin-3-yl]-amide], the IC50 was determined as 3010 nM.
As for `CC(C)n1cc(C(=O)c2cncc(NC(=O)c3cn(C)cn3)c2)c2cncnc21` [Example 465, 1-Methyl-1H-imidazole-4-carboxylic acid [5-(7-isopropyl-7H-pyrrolo[2,3-d]pyrimidine-5-carbonyl)-pyridin-3-yl]-amide], the figure is 2130 nM; as for `CC(C)n1cc(C(=O)c2cncc(NC(=O)c3ccc(Cl)cn3)c2)c2cncnc21` [Example 466, 5-Chloro-pyridine-2-carboxylic acid[5-(7-isopropyl-7H-pyrrolo[2,3-d]pyrimidine-5-carbonyl)-pyridin-3-yl]-amide], 400 nM; as for `CC(C)n1cc(C(=O)c2cncc(NC(=O)c3ccc4cccnc4n3)c2)c2cncnc21` [Example 467, 1,8-Naphthyridine-2-carboxylic acid[5-(7-isopropyl-7H-pyrrolo[2,3-d]pyrimidine-5-carbonyl)-pyridin-3-yl]-amide], 538 nM.
Take `CC(C)n1cc(C(=O)c2cncc(NC(=O)c3nccn3C)c2)c2cncnc21` [Example 468, 1-Methyl-1H-imidazole-2-carboxylic acid [5-(7-isopropyl-7H-pyrrolo[2,3-d]pyrimidine-5-carbonyl)-pyridin-3-yl]-amide]: the IC50 came to 5100 nM.
Consider `COCc1cc(C(=O)Nc2cncc(C(=O)c3cn(C(C)C)c4ncncc34)c2)no1` [Example 469, 5-Methoxymethyl-isoxazole-3-carboxylic acid [5-(7-isopropyl-7H-pyrrolo[2,3-d]pyrimidine-5-carbonyl)-pyridin-3-yl]-amide], for which the IC50 was 523 nM.
As for `CC(C)n1cc(C(=O)c2cncc(NC(=O)c3nncc4ccccc34)c2)c2cncnc21` [Example 470, Phthalazine-1-carboxylic acid [5-(7-isopropyl-7H-pyrrolo[2,3-d]pyrimidine-5-carbonyl)-pyridin-3-yl]-amide], the figure is 166 nM; as for `CC(C)n1cc(C(=O)c2cncc(NC(=O)c3cnn4c3CCC4)c2)c2cncnc21` [Example 471, 5,6-Dihydro-4H-pyrrolo[1,2-b]pyrazole-3-carboxylic acid [5-(7-isopropyl-7H-pyrrolo[2,3-d]pyrimidine-5-carbonyl)-pyridin-3-yl]-amide], 751 nM.
Turning to `CC(C)n1cc(C(=O)c2cncc(NC(=O)c3ncncc3Br)c2)c2cncnc21` [Example 472, 5-Bromo-pyrimidine-4-carboxylic acid [5-(7-isopropyl-7H-pyrrolo[2,3-d]pyrimidine-5-carbonyl)-pyridin-3-yl]-amide], the IC50 came to 1720 nM.
For `CC(C)n1cc(C(=O)c2cncc(NC(=O)c3ccc(C#N)nc3)c2)c2cncnc21` [Example 473, 6-Cyano-N-[5-(7-isopropyl-7H-pyrrolo[2,3-d]pyrimidine-5-carbonyl)-pyridin-3-yl]-nicotinamide] the value was 7280 nM; for `CC(C)n1cc(C(=O)c2cncc(NC(=O)c3cnn4cccnc34)c2)c2cncnc21` [Example 474, Pyrazolo[1,5-a]pyrimidine-3-carboxylic acid [5-(7-isopropyl-7H-pyrrolo[2,3-d]pyrimidine-5-carbonyl)-pyridin-3-yl]-amide], 4420 nM; for `Cc1n[nH]c2ncc(C(=O)Nc3cncc(C(=O)c4cn(C(C)C)c5ncncc45)c3)cc12` [Example 475, 3-Methyl-1H-pyrazolo[3,4-b]pyridine-5-carboxylic acid [5-(7-isopropyl-7H-pyrrolo[2,3-d]pyrimidine-5-carbonyl)-pyridin-3-yl]-amide], 643 nM.
As for `Cc1cccc2cc(C(=O)Nc3cncc(C(=O)c4cn(C(C)C)c5ncncc45)c3)nn12` [Example 476, 7-Methyl-pyrazolo[1,5-a]pyridine-2-carboxylic acid [5-(7-isopropyl-7H-pyrrolo[2,3-d]pyrimidine-5-carbonyl)-pyridin-3-yl]-amide], the IC50 came to 65 nM.
As for `Cc1ocnc1C(=O)Nc1cncc(C(=O)c2cn(C(C)C)c3ncncc23)c1` [Example 477, 5-Methyl-oxazole-4-carboxylic acid [5-(7-isopropyl-7H-pyrrolo[2,3-d]pyrimidine-5-carbonyl)-pyridin-3-yl]-amide], the figure is 3030 nM; as for `CC(C)n1cc(C(=O)c2cncc(NC(=O)c3cc4cscc4cn3)c2)c2cncnc21` [Example 478, Thieno[3,4-c]pyridine-6-carboxylic acid [5-(7-isopropyl-7H-pyrrolo[2,3-d]pyrimidine-5-carbonyl)-pyridin-3-yl]-amide], 587 nM.
For `Cc1cc(C(=O)Nc2cncc(C(=O)c3cn(C(C)C)c4ncncc34)c2)nc(C)n1` [Example 479, 2,6-Dimethyl-pyrimidine-4-carboxylic acid [5-(7-isopropyl-7H-pyrrolo[2,3-d]pyrimidine-5-carbonyl)-pyridin-3-yl]-amide] the value was 2160 nM; for `CC(C)n1cc(C(=O)c2cncc(NC(=O)c3cc(C#N)ccn3)c2)c2cncnc21` [Example 480, 4-Cyano-pyridine-2-carboxylic acid [5-(7-isopropyl-7H-pyrrolo[2,3-d]pyrimidine-5-carbonyl)-pyridin-3-yl]-amide], 531 nM.
For `COCc1cc(C(=O)Nc2cncc(C(=O)c3cn(C(C)C)c4ncncc34)c2)nn1C` [Example 481, 5-Methoxymethyl-1-methyl-1H-pyrazole-3-carboxylic acid [5-(7-isopropyl-7H-pyrrolo[2,3-d]pyrimidine-5-carbonyl)-pyridin-3-yl]-amide] the value was 313 nM; for `CC(C)n1cc(C(=O)c2cncc(NC(=O)c3nc(Cl)c(Cl)[nH]3)c2)c2cncnc21` [Example 482, 4,5-Dichloro-1H-imidazole-2-carboxylic acid [5-(7-isopropyl-7H-pyrrolo[2,3-d]pyrimidine-5-carbonyl)-pyridin-3-yl]-amide], 6860 nM.

The record behind these values is patent US8846698B2, “Pyrrolo[2,3-d]pyrimidine tropomysin-related kinase inhibitors” (Pfizer Limited, priority 2011, dated 2014).
